From PubChem BioAssay AID1996 come the findings set out here.

SMILES strings stand for the structures. Converted amounts (≈) assume the structure as drawn.

For this data set the following is noted: buffer; pH 7.4; 200.0 µM.
For `Cc1cc(=O)[nH]c(SCc2cccc3ccccc23)n1`, the kinetic solubility came to 23.5 µg/mL (≈ 83.2 µM).
For `CCOC(=O)N1CCN(C(=O)c2ccc3[nH]c(C)c(C)c3c2)CC1`, the solubility (kinetic) is greater than 49.4 µg/mL.
To `Cc1ccc(SCCOCCN2CCOCC2)cc1.Cl` belongs greater than 47.7 µg/mL; to `O=C(Nc1ccc(C(=O)O)cc1)Nc1cccc2ccccc12`, greater than 45.9 µg/mL.
Then `O=C(Nc1ccc(O)cc1C(=O)O)c1cccs1`, with greater than 39.5 µg/mL.
To `CCOc1cc(N2CCOCC2)c(OCC)cc1NC(=O)COC(=O)c1c(CC)noc1C` belongs 7 µg/mL (≈ 15.2 µM); to `CC(C)N1CCN(Cc2cc3c(cc2Cl)OCO3)CC1CCO` (stereo not given), 39.9 µg/mL (≈ 117 µM).
The compound `CC1CCCN(C(=O)CSc2nnc(-c3ccncc3)n2C)C1` (stereo not given) came in with a solubility (kinetic) greater than 49.7 µg/mL.
In turn, `COc1ccc(NC(=O)Cn2cnc3ccccc3c2=O)cc1OC` gave a kinetic solubility of 12.6 µg/mL (≈ 37.1 µM).
Compound `CCN(CC(=O)Nc1c(F)cccc1F)C(=O)Cc1ccccc1` had a solubility (kinetic) greater than 49.9 µg/mL.
To `CN(c1ccccc1)S(=O)(=O)c1ccc2[nH]c(=O)[nH]c2c1` belongs 16.6 µg/mL (≈ 54.7 µM); to `O=C(NCCO)/C(=C/c1cccc([N+](=O)[O-])c1)NC(=O)c1ccco1`, greater than 51.8 µg/mL; to `CCNC(=O)COC(=O)c1cc(C)n(-c2ccccc2)c1C`, greater than 45.1 µg/mL.
On to `CCOc1ncccc1C(=O)Nc1ccc2c(c1)OCCCO2`, for which the solubility (kinetic) is greater than 47.2 µg/mL.
Then `CC(C)(C)NC(=O)Cn1c(SCC(=O)NC2CCCC2)nc2ccccc21`, with 52.9 µg/mL (≈ 136 µM); and `CCOCCCNC(=O)C1c2ccccc2Oc2ccccc21`, with 13.6 µg/mL (≈ 43.7 µM); and `CN(CC(=O)Nc1ccc(Cl)cc1)C(=O)CCC1CCCC1`, with 0.4 µg/mL (≈ 1.24 µM).
Compound `O=[N+]([O-])/C=C1\C=CC=CN1Cc1ccc(Cl)cc1` registered a kinetic solubility of 31.7 µg/mL (≈ 121 µM).
Then `COc1cccc(/C(N)=N/OC(=O)Cc2ccccc2[N+](=O)[O-])c1`, with 31.7 µg/mL (≈ 96.3 µM); and `Nc1c(C(=O)c2ccccc2)oc2ccc([N+](=O)[O-])cc12`, with 1.3 µg/mL (≈ 4.61 µM); and `CC(=O)c1ccccc1OCCCOc1cccc2cccnc12`, with 45.8 µg/mL (≈ 143 µM).
The compound `OCCC1CN(Cc2cccnc2)CCN1CCc1ccccc1` (stereo not given) registered a kinetic solubility of 42.4 µg/mL (≈ 130 µM).
Then `CCCn1c(C)c(C(=O)OCC)c(O)c(-c2ccccc2)c1=O`, with greater than 47.3 µg/mL; and `CCN1CSC(=S)N(Cc2ccccc2)C1`, with 37.5 µg/mL (≈ 149 µM); and `Nc1cccc(NC(=O)CCC(=O)NCc2ccco2)c1`, with greater than 43.1 µg/mL.
`O=C(NC1CCCCC1)c1cc(-c2cccs2)on1` gave a kinetic solubility of 0.9 µg/mL (≈ 3.26 µM).
To `COc1ccccc1C(=O)NCCCNC(=O)c1ccccn1` belongs greater than 47 µg/mL; to `O=c1oc2ccc(Cl)cc2nc1/C=C(\O)c1cccs1`, 20.9 µg/mL (≈ 68.4 µM).
The compound `O=c1[nH]c(-c2ccccc2)nc(-c2ccccc2)c1Cl` registered a solubility (kinetic) of 2.4 µg/mL (≈ 8.49 µM).
Then `CC(=O)NC1=NN(C(C)=O)C(c2ccco2)S1` (stereo not given), with greater than 38 µg/mL; and `Nc1ccc(-c2cnc3ccccc3n2)cc1`, with 27.4 µg/mL (≈ 124 µM); and `CC(=O)N1CCN(S(=O)(=O)c2ccc(Cl)cc2F)CC1`, with greater than 48.1 µg/mL.
Regarding `OC(c1nc2ccccc2[nH]1)C(O)C(O)C(O)c1nc2ccccc2[nH]1` (stereo not given), the solubility (kinetic) stood at 1.4 µg/mL (≈ 3.95 µM).
To `O=C(NCc1ccc(Cl)cc1)c1cc2ccccc2oc1=O` belongs less than 0.7 µg/mL.
Compound `Cc1ccc(N2C(=O)C(Cl)=C(N3CCOCC3)C2=O)c(C)c1` returned a solubility (kinetic) of 36.3 µg/mL (≈ 113 µM).
Turning to `COc1cc(OC)cc(C(=O)O/N=C(\N)c2ccccn2)c1`, the solubility (kinetic) was found to be 40.6 µg/mL (≈ 135 µM).
As for `CN(C)S(=O)(=O)c1ccc(C(=O)OCCc2ccccc2)cc1`, the kinetic solubility came to 0.9 µg/mL (≈ 2.7 µM).
The compound `O=[N+]([O-])c1cc2c(cc1C=Nc1ccccc1)OCO2` registered a kinetic solubility of 38.1 µg/mL (≈ 141 µM).
Then `Cc1ccn2cc(CCNC(=O)C3CC=CCC3C(=O)O)nc2c1` (stereo not given), with 45.7 µg/mL (≈ 140 µM); and `Cc1ccsc1CN(C)C(=O)c1ccc(Oc2ccccc2)cc1`, with 3.3 µg/mL (≈ 9.78 µM); and `CSC1=C(C#N)C(=O)NC(c2ccc(Cl)cc2)S1` (stereo not given), with 11.9 µg/mL (≈ 40.1 µM).
Then `Cc1cc(=O)[nH]c(SCc2cn3ccccc3n2)n1`, with greater than 40.8 µg/mL; and `COC(=O)Cc1c(O)ccn(C2CC2)c1=O`, with greater than 33.5 µg/mL.
As to `COc1ccc(C(=O)Nc2nc(C)cc(C)n2)cc1`, the kinetic solubility was greater than 38.6 µg/mL.
`CCNC(=O)CCc1nc(-c2ccc(C)cc2)no1` gave a solubility (kinetic) greater than 38.9 µg/mL.
In turn, `O=C(c1cccs1)c1c[nH]cc1-c1ccccc1` came in with a kinetic solubility of 4.4 µg/mL (≈ 17.4 µM).
`Cc1ccc(NC(=O)O/N=C/c2ccc(Br)cc2)cc1` had a solubility (kinetic) of 1.4 µg/mL (≈ 4.2 µM).
Then `CCOC(=O)c1cnc(/N=C/N(C)C)s1`, with 29.6 µg/mL (≈ 130 µM).
To `Cc1cccc(OCC(=O)OCC(=O)N2CCN(C(=O)c3ccco3)CC2)c1C` belongs greater than 60.1 µg/mL.
With `Cc1cc(C)nc(NC(=O)c2ccc(Cl)cc2Cl)n1`, the solubility (kinetic) is 42 µg/mL (≈ 142 µM).
As to `CCCCNC(=O)Cn1nc(Cc2ccncc2)c2ccccc2c1=O`, the kinetic solubility was greater than 52.6 µg/mL.
Then `COc1cccc(CNCCc2c[nH]c3ccccc23)c1OC.Cl`, with greater than 52 µg/mL; and `COc1cc(CNC(=O)C2CCCC2)cc(OC)c1OC`, with greater than 44 µg/mL.
Compound `Cc1cc2oc(C(=O)Nc3nonc3C)c(C)c2cc1Cl` showed a solubility (kinetic) of less than 0.2 µg/mL.
Compound `O=c1c2c3c(sc2nc2n1CCCCC2)C(O)CCC3` (stereo not given) came in with a solubility (kinetic) greater than 43.6 µg/mL.
Turning to `COc1cc(OC)cc(C(=O)NCCc2ccc(OC)c(OC)c2)c1`, the solubility (kinetic) turned out to be 45.5 µg/mL (≈ 132 µM).
With `CCNS(=O)(=O)c1ccc(NC(=S)N2CCc3ccccc32)cc1`, the kinetic solubility was 1.2 µg/mL (≈ 3.32 µM).
To `Nc1nc(Cl)cc(Oc2ccccc2F)n1` belongs 15.6 µg/mL (≈ 65.1 µM); to `CCc1ccc(N2C(=O)CC(=O)NC2=O)cc1`, greater than 34.8 µg/mL; to `O=C(COc1ccccc1[N+](=O)[O-])Nc1ccc2c(c1)OCO2`, 1.7 µg/mL (≈ 5.38 µM).
To `CN(C)C(=S)Nc1ccc(Cc2ccncc2)cc1` belongs 36.5 µg/mL (≈ 134 µM).
To `COc1ccccc1OCCC(=O)OCC(=O)NCc1ccc(F)cc1` belongs 23.5 µg/mL (≈ 65 µM); to `Br.Cn1c(=N)n(CC(=O)c2ccccc2)c2ccccc21`, greater than 51.9 µg/mL; to `CC(Nc1c([N+](=O)[O-])c(=O)oc2ccccc12)c1ccccc1` (stereo not given), 8.8 µg/mL (≈ 28.4 µM).
As to `COc1ccc2c(c1)c(C(=O)O)c(C)n2-c1ccc(Cl)cc1`, the solubility (kinetic) was 15.2 µg/mL (≈ 48.1 µM).
To `O=C(Cn1c(=O)oc2ccccc21)NCCc1ccccc1Cl` belongs 1.5 µg/mL (≈ 4.53 µM); to `COC(=O)C1=C(C)N(C)C(=O)NC1c1cccc2ccccc12` (stereo not given), 30.2 µg/mL (≈ 97.3 µM).
The compound `C=CCc1cccc(CNc2c(C)cc(C)cc2C)c1O` displayed a kinetic solubility of 4.7 µg/mL (≈ 16.7 µM).
To `CCOc1ccc(C)cc1S(=O)(=O)n1cnc2ccccc21` belongs 1 µg/mL (≈ 3.16 µM); to `O=C(CNC(=O)c1ccc(Cl)cc1)c1ccccc1`, 6 µg/mL (≈ 21.9 µM); to `Cc1occc1C(=O)Nc1ccc(OCc2ccccc2)cc1`, 2.1 µg/mL (≈ 6.83 µM).
Then `COc1cc(C2C(C#N)=C(N)OC3=C2C(=O)CC(C)(C)C3)cc2c1OCO2` (stereo not given), with 21.6 µg/mL (≈ 58.6 µM).
To `Cc1cc(SCc2ccc(Cl)cc2Cl)nc(=O)[nH]1` belongs 4.6 µg/mL (≈ 15.3 µM); to `COCCN(Cc1ccc(F)cc1)C(=O)c1cc2ccccc2oc1=O`, greater than 53.3 µg/mL; to `CCOC(=O)c1c(-c2ccc(F)cc2)csc1/N=C/N(C)C`, greater than 48.1 µg/mL.
